The record followed here is patent US5688773A, “Method of selectively destroying neoplastic cells” (priority 1994, dated 1997).

One data set concerns C6VIKWT tumors. Kind of data set: Ganciclovir sensitivity of subcutaneous tumors in vivo. Set-up: species or system nude mice. The procedure: Ganciclovir therapy was begun when tumor size reached 1 cm in diameter as measured by calipers, by intraperitoneal injections up to 25 mg/kg daily for 14 days. […] Tumor volumes were measured biweekly during treatment over a 24 day period, and were expressed as a percentage compared to the volume at the time treatment was begun.

The test system of another data set is C6BAG and C6VIKWT cells. Kind of data set: Ganciclovir treatment of combined subcutaneous tumors. It is filed as in vivo, nude mice. The procedure: Sequential injections of 10^5 C6BAG cells followed immediately by 10^6 C6BU1 cells, C6VIK cells, or C6VIKWT cells at the same injection site, were carried out as above using 20 animals for each combination. […] Tumor volume was assessed as the percentage increase over the volume at the beginning of treatment through 17 days.

A further data set has as its system C6 cells. Kind of data set: Trypsinization and replating assay. It is filed as cell-based, rat. The note with it: for Cell number: replated, counted nine days later. As to the method: (§1) Trypsinization and replating assay: To determine the temporal kinetics of CPA-mediated cytotoxicity, 2×10^6 cells were plated onto each 10 cm dish. Twenty-four hours later, 0.5 mM CPA was added and cells were incubated for the times indicated in each figure. Cells were then trypsinized and replated at a density of 2×10^5 cells/10 cm dish. Nine days later, cell numbers were evaluated by Coulter counting.

A further data set has as its system C6-P450 cells. Kind of data set: Trypsinization and replating assay. The data set is classed as cell-based, rat. The note with it: for Cell number: replated, counted nine days later. As to the method: as §1
[1] abbreviates: Table V panel B, survivors of panel A replated, nine days.

`Nc1nc(O)c2ncn(COC(CO)CO)c2n1` [ganciclovir]: the Tumor growth result in the data set with C6VIKWT tumors (ganciclovir for 14 days from tumor size 1 cm) is “inhibited subsequent growth completely”. In addition, the Tumor regression result in the data set with C6VIKWT tumors (subcutaneous inoculation, GCV treatment) is reported as “regression of tumors in most nude mice”; with C6BAG and C6VIKWT cells (C6VIK-WT and C6BAG inoculated simultaneously, GCV treatment) it was “regression of tumors in most nude mice”. Also, the “Tumor size compared to C6BAG and C6BU1 tumors” value with C6BAG and C6VIKWT cells (14 day course, 25 mg/kg twice a day intraperitoneally) is listed as “even greater decrease in the size”.
In the case of `O=P1(N(CCCl)CCCl)NCCCO1` (stereo not shown) [cyclophosphamide], the Cell number is recorded as 11.6 ± 0.4 ×10^6 with C6 cells (0.5 mM CPA for 0.5 h); 21.7 ± 0.6 ×10^6 with C6 cells (0.5 mM CPA for 1.5 h); 13.1 ± 1.6 ×10^6 in the data set on C6 cells (0.5 mM CPA for 3 h); 12.9 ± 0.7 ×10^6 in the data set on C6 cells (0.5 mM CPA for 6 h); 20.4 ± 0.6 ×10^6 in the data set on C6 cells (0.5 mM CPA for 10 h); 17 ± 0.7 ×10^6 in the data set on C6 cells (0.5 mM CPA for 24 h). Besides, the Cell number with C6 cells (0.5 mM CPA for 32 h) was 15.4 ± 0.5 ×10^6; in the data set on C6 cells (0.5 mM CPA for 48 h), 18.3 ± 1 ×10^6; with C6 cells (0.5 mM CPA for 72 h), 20.2 ×10^6; in the data set on C6 cells (0.5 mM CPA for 96 h), 28.8 ± 0.8 ×10^6; with C6-P450 cells (0.5 mM CPA for 0.5 h) it was 12 ± 1 ×10^6; with C6-P450 cells (0.5 mM CPA for 1.5 h), 24.1 ± 0.6 ×10^6. The Cell number was 0.2 ×10^6 in the data set on C6-P450 cells (0.5 mM CPA for 3 h); 0.1 ×10^6 with C6-P450 cells (0.5 mM CPA for 6 h); 0.1 ×10^6 in the data set with C6-P450 cells (0.5 mM CPA for 10 h); 0.1 ×10^6 with C6-P450 cells (0.5 mM CPA for 24 h); 0 ×10^6 in the data set with C6-P450 cells (0.5 mM CPA for 32 h); 0.1 ×10^6 with C6-P450 cells (0.5 mM CPA for 48 h). Further, the Cell number in the data set with C6-P450 cells (0.5 mM CPA for 72 h) and with C6-P450 cells (0.5 mM CPA for 96 h) was 0 ×10^6 throughout. The “Trypsinization and replating assay, cell count” value in the data set with C6 cells (setting [1]) amounted to 21.48±0.38; in the data set with C6-P450 cells (setting [1]), 0.11±0.01. In the data set on C6-P450 cells (0.5 mM CPA), the “pulse of CPA sufficient to completely inhibit the growth of replated cells” value came out at 3 h. Further, the “Proliferation of treated cells after replating” value in the data set on C6-P450 cells (0.5 mM, trypsinization and replating) is reported as “completely inhibited”.
